Reference: US20250122183A1 (Pfizer Inc., priority 2023, published 2025)

Columns and labels:
Format in all cases: biochemical
KAT8 Full length enzyme = KAT8 Full length enzyme (Homo sapiens (Human), UniProt Q9H7Z6); assay: KAT8 assay (SAMDI-MS acetylation of H3 1-21 peptide); conditions: Morrison equation fit; replicate number in parentheses; read-out: KAT8 Ki (nM) (replicate number)
[1] = molecular target: KAT7+BRPF2+EAF6+ING5 4 protein complex (Homo sapiens (Human), UniProt O95251); assay: KAT7 BRPF2 assay (SAMDI-MS acetylation of H3 1-21 peptide); conditions: Morrison equation fit; replicate number in parentheses; read-out: KAT7 BRPF2 Ki (nM) (replicate number)
[2] = molecular target: KAT7+JADE1+EAF6+ING5 4 protein complex (Homo sapiens (Human), UniProt O95251); assay: KAT7 JADE1 assay (SAMDI-MS acetylation of H3 1-21 peptide); conditions: Morrison equation fit; replicate number in parentheses; read-out: KAT7 JADE1 Ki (nM) (replicate number)
KAT6A Full length enzyme = KAT6A Full length enzyme (Homo sapiens (Human), UniProt Q92794); assay: KAT6A assay (SAMDI-MS acetylation of H3 1-21 peptide); conditions: Morrison equation fit; replicate number in parentheses; read-out: KAT6A Ki (nM) (replicate number)
[3] = molecular target: KAT7+BRPF1+EAF6+ING5 4 protein complex (Homo sapiens (Human), UniProt O95251); assay: KAT7 BRPF1 assay (SAMDI-MS acetylation of H3 1-21 peptide); conditions: Morrison equation fit; replicate number in parentheses
KAT5 Full length enzyme = KAT5 Full length enzyme (Homo sapiens (Human), UniProt Q92993); assay: KAT5 assay (SAMDI-MS acetylation of H4 1-21 peptide); conditions: Morrison equation fit; replicate number in parentheses; read-out: KAT5 Ki (nM) (replicate number)
KAT5 Full length enzyme, sequence (Q92993 whole entry): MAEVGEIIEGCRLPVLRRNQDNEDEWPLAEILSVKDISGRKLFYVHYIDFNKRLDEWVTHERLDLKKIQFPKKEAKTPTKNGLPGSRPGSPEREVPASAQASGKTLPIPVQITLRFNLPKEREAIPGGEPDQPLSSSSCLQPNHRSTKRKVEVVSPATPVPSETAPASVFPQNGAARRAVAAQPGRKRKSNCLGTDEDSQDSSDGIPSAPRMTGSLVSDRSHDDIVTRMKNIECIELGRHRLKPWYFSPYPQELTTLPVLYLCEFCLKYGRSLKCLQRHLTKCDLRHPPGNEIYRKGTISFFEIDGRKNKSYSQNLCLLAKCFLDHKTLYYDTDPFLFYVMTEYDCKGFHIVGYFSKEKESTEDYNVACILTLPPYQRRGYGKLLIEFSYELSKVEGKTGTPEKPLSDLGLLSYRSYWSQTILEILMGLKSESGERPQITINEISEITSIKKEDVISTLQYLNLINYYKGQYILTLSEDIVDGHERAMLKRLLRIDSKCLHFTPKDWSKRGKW

KAT6A Full length enzyme, sequence (Q92794 other isoform, or with tags, fused parts or gaps): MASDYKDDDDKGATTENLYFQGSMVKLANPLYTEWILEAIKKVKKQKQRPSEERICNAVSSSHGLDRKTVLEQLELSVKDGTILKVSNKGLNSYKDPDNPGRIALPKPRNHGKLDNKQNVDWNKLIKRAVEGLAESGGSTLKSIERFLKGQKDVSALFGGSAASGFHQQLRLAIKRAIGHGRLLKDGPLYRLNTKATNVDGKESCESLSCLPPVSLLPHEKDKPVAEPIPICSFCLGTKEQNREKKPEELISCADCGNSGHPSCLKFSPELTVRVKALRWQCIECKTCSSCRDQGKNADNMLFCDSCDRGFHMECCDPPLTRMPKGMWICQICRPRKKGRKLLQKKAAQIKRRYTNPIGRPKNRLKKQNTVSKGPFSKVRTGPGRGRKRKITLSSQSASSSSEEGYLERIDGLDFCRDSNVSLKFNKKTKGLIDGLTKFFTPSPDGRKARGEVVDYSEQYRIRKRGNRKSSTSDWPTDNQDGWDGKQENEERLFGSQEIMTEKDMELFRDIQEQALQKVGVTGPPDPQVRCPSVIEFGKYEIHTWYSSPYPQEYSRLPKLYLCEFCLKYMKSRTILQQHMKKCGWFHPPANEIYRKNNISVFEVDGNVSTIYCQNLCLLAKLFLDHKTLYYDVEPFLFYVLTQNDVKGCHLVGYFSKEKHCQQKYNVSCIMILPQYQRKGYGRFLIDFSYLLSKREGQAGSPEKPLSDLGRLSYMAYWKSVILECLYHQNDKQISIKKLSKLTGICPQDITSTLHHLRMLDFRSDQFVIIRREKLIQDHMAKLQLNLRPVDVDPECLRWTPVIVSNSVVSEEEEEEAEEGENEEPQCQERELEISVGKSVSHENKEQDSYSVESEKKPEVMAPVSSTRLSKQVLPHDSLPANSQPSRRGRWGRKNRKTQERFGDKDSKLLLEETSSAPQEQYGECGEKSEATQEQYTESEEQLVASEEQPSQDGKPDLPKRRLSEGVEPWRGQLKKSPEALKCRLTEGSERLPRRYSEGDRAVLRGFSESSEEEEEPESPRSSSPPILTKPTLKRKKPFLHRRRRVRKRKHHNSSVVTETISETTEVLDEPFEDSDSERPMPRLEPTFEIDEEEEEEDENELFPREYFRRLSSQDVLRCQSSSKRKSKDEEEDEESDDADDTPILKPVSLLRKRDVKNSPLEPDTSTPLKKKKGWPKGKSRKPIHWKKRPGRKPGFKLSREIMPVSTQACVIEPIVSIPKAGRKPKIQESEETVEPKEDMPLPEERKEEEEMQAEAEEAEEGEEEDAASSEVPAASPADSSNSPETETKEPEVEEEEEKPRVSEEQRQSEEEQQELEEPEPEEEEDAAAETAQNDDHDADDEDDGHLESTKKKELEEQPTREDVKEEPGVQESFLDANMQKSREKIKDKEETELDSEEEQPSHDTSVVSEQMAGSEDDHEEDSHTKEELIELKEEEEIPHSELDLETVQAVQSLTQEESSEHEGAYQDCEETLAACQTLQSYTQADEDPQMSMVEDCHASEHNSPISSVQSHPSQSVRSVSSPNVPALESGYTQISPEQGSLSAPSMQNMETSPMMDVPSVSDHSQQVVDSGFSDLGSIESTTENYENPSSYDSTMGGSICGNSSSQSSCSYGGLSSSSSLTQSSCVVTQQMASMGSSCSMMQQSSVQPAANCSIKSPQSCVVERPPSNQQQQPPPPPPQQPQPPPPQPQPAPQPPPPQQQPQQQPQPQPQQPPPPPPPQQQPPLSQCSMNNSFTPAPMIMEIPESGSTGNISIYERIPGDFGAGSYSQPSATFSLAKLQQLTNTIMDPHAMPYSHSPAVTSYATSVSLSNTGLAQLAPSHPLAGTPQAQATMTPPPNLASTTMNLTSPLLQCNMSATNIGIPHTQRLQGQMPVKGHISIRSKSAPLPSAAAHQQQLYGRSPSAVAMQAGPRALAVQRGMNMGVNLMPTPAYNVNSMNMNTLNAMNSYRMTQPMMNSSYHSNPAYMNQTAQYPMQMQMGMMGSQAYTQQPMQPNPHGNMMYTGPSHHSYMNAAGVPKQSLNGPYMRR
KAT8 Full length enzyme, sequence (Q9H7Z6 whole entry): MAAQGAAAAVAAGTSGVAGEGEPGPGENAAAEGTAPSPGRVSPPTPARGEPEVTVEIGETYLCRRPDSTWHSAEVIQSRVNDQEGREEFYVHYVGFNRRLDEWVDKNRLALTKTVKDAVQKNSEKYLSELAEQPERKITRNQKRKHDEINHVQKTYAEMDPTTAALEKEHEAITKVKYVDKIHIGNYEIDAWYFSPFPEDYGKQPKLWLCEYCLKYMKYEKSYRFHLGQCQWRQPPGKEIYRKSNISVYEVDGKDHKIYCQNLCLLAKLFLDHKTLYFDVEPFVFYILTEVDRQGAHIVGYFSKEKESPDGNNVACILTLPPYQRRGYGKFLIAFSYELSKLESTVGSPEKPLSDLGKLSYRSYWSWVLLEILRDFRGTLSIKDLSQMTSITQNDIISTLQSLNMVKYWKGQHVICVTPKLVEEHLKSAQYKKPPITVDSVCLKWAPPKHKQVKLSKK

Structure (SMILES)	Ki (KAT8 Full length enzyme)	Ki [1]	Ki [2]	Ki (KAT6A Full length enzyme)	Ki [3]	Ki (KAT5 Full length enzyme)
COc1cc2c(NS(=O)(=O)c3ccc(C)cc3OC)noc2cc1Nc1cc[nH]n1 [Example 23, 2-methoxy-N-{5-methoxy-6-[(1H-pyrazol-3-yl)amino]-1,2-benzoxazol-3-yl}-4-methylbenzene-1-sulfonamide]	1060 nM	95.2 nM	212 nM	0.9 nM	36.7 nM	418 nM
COc1cc2c(NS(=O)(=O)c3cc(C)ccc3OC)noc2cc1Nc1cc[nH]n1 [Example 24, 2-methoxy-N-{5-methoxy-6-[(1H-pyrazol-3-yl)amino]-1,2-benzoxazol-3-yl}-5-methylbenzene-1-sulfonamide]	440 nM	182 nM	285 nM	0.9 nM	88.5 nM	236 nM
COc1cc2c(NS(=O)(=O)c3cc(C(C)C)c(C)cc3OC)noc2cc1Nc1cc[nH]n1 [Example 26, 2-methoxy-N-{5-methoxy-6-[(1H-pyrazol-3-yl)amino]-1,2-benzoxazol-3-yl}-4-methyl-5-(propan-2-yl)benzene-1-sulfonamide]	154 nM	71.5 nM	206 nM	0.6 nM	14.7 nM	189 nM
COc1cc2c(NS(=O)(=O)c3ccc(Cl)cc3OC)noc2cc1Nc1cc[nH]n1 [Example 27, 4-chloro-2-methoxy-N-{5-methoxy-6-[(1H-pyrazol-3-yl)amino]-1,2-benzoxazol-3-yl}benzene-1-sulfonamide]	893 nM	124 nM	220 nM	1.3 nM	74.7 nM	390 nM
CCOc1ccccc1S(=O)(=O)Nc1noc2cc(Nc3cc[nH]n3)c(OC)cc12 [Example 28, 2-ethoxy-N-{5-methoxy-6-[(1H-pyrazol-3-yl)amino]-1,2-benzoxazol-3-yl}benzene-1-sulfonamide]	3110 nM	141 nM	290 nM	1.2 nM	97.1 nM	630 nM
CCOc1cc(C)ccc1S(=O)(=O)Nc1noc2cc(Nc3cc[nH]n3)c(OC)cc12 [Example 29, 2-ethoxy-N-{5-methoxy-6-[(1H-pyrazol-3-yl)amino]-1,2-benzoxazol-3-yl}-4-methylbenzene-1-sulfonamide]	1380 nM	49.1 nM	182 nM	1 nM	40.5 nM	594 nM
COc1cc2c(NS(=O)(=O)c3c(OC)cccc3OCC(F)F)noc2cc1Nc1cc[nH]n1 [Example 31, 2-(2,2-difluoroethoxy)-6-methoxy-N-{5-methoxy-6-[(1H-pyrazol-3-yl)amino]-1,2-benzoxazol-3-yl}benzene-1-sulfonamide]	781 nM	104 nM	325 nM	0.8 nM	79.9 nM	977 nM
COc1cc2c(NS(=O)(=O)c3c(OC)cccc3OC)noc2cc1Nc1ncn(C)n1 [Example 35, 2,6-dimethoxy-N-{5-methoxy-6-[(1-methyl-1H-1,2,4-triazol-3-yl)amino]-1,2-benzoxazol-3-yl}benzene-1-sulfonamide]	9110 nM	156 nM	527 nM	3 nM	48.3 nM	1760 nM
COc1cc2c(NS(=O)(=O)c3c(OC)cccc3OC)noc2cc1Nc1n[nH]c(C)n1 [Example 36, 2,6-dimethoxy-N-{5-methoxy-6-[(5-methyl-1H-1,2,4-triazol-3-yl)amino]-1,2-benzoxazol-3-yl}benzene-1-sulfonamide]	2990 nM	106 nM	501 nM	1 nM	93 nM	1080 nM
CCn1ccc(Nc2cc3onc(NS(=O)(=O)c4c(OC)cccc4OC)c3cc2OC)n1 [Example 39, N-{6-[(1-ethyl-1H-pyrazol-3-yl)amino]-5-methoxy-1,2-benzoxazol-3-yl}-2,6-dimethoxybenzene-1-sulfonamide]	> 32600 nM	98.2 nM	175 nM	6.1 nM	75.3 nM	1750 nM
CCc1nc(Nc2cc3onc(NS(=O)(=O)c4c(OC)cccc4OC)c3cc2OC)n[nH]1 [Example 40, N-{6-[(5-ethyl-1H-1,2,4-triazol-3-yl)amino]-5-methoxy-1,2-benzoxazol-3-yl}-2,6-dimethoxybenzene-1-sulfonamide]	> 16300 nM	156 nM	526 nM	3.1 nM	49.1 nM	4600 nM
CCn1cnc(Nc2cc3onc(NS(=O)(=O)c4c(OC)cccc4OC)c3cc2OC)n1 [Example 41, N-{6-[(1-ethyl-1H-1,2,4-triazol-3-yl)amino]-5-methoxy-1,2-benzoxazol-3-yl}-2,6-dimethoxybenzene-1-sulfonamide]	> 16300 nM	94.2 nM	359 nM	6 nM	25.6 nM	3390 nM
CCn1cc(Nc2cc3onc(NS(=O)(=O)c4c(OC)cccc4OC)c3cc2OC)nn1 [Example 42, N-{6-[(1-ethyl-1H-1,2,3-triazol-4-yl)amino]-5-methoxy-1,2-benzoxazol-3-yl}-2,6-dimethoxybenzene-1-sulfonamide]	> 16300 nM	30.8 nM	316 nM	10.7 nM	26.7 nM	7120 nM
COc1cc(Nc2cc3onc(NS(=O)(=O)c4c(OC)cccc4OC)c3cc2OC)n[nH]1 [Example 44, 2,6-dimethoxy-N-{5-methoxy-6-[(5-methoxy-1H-pyrazol-3-yl)amino]-1,2-benzoxazol-3-yl}benzene-1-sulfonamide]	> 16300 nM	16.2 nM	48.2 nM	3.4 nM	9.8 nM	1000 nM
COc1cc2c(NS(=O)(=O)c3c(OC)cccc3OC)noc2cc1Nc1cc(C2CC2)n[nH]1 [Example 47, N-{6-[(3-cyclopropyl-1H-pyrazol-5-yl)amino]-5-methoxy-1,2-benzoxazol-3-yl}-2,6-dimethoxybenzene-1-sulfonamide]	1220 nM	2.2 nM	5 nM	0.8 nM	1.9 nM	131 nM
COc1cc2c(NS(=O)(=O)c3c(OC)cccc3OC)noc2cc1Nc1cc(C(C)C)n[nH]1 [Example 50, 2,6-dimethoxy-N-(5-methoxy-6-{[3-(propan-2-yl)-1H-pyrazol-5-yl]amino}-1,2-benzoxazol-3-yl)benzene-1-sulfonamide]	709 nM	22.8 nM	113 nM	4.5 nM	28.4 nM	634 nM
COc1cc2c(NS(=O)(=O)c3c(OC)cccc3OC)noc2cc1Nc1cc(C2CCNCC2)n[nH]1 [Example 56, 2,6-dimethoxy-N-(5-methoxy-6-{[3-(piperidin-4-yl)-1H-pyrazol-5-yl]amino}-1,2-benzoxazol-3-yl)benzene-1-sulfonamide]	7220 nM	512 nM	594 nM	3 nM	157 nM	22200 nM
COc1cc2c(NS(=O)(=O)c3ccc(C)cc3OCC(F)F)noc2cc1Nc1cc(C(C)C)[nH]n1 [Example 62, 2-(2,2-difluoroethoxy)-N-(5-methoxy-6-{[5-(propan-2-yl)-1H-pyrazol-3-yl]amino}-1,2-benzoxazol-3-yl)-4-methylbenzene-1-sulfonamide]	5340 nM	35.3 nM	191 nM	4.9 nM	38.1 nM	750 nM
CCOc1ccccc1S(=O)(=O)Nc1noc2cc(Nc3cc(C(C)C)[nH]n3)c(OC)cc12 [Example 63, 2-ethoxy-N-(5-methoxy-6-{[5-(propan-2-yl)-1H-pyrazol-3-yl]amino}-1,2-benzoxazol-3-yl)benzene-1-sulfonamide]	13000 nM	76.2 nM	203 nM	10.2 nM	54.8 nM	436 nM
COc1cc2c(NS(=O)(=O)c3ccc(C)cc3OCC(F)F)noc2cc1Nc1cc[nH]n1 [Example 64, 2-(2,2-difluoroethoxy)-N-{5-methoxy-6-[(1H-pyrazol-3-yl)amino]-1,2-benzoxazol-3-yl}-4-methylbenzene-1-sulfonamide]	550 nM	144 nM	136 nM	0.2 nM	146 nM	48.1 nM
COc1cc2c(NS(=O)(=O)c3ccccc3OC)noc2cc1Nc1cc(C(C)C)[nH]n1 [Example 65, 2-methoxy-N-(5-methoxy-6-{[5-(propan-2-yl)-1H-pyrazol-3-yl]amino}-1,2-benzoxazol-3-yl)benzene-1-sulfonamide]	> 13000 nM	85.4 nM	206 nM	8.6 nM	57.4 nM	1280 nM
CCOc1cc(C)c(F)cc1S(=O)(=O)Nc1noc2cc(Nc3cc[nH]n3)c(OC)cc12 [Example 77, 2-ethoxy-5-fluoro-N-{5-methoxy-6-[(1H-pyrazol-3-yl)amino]-1,2-benzoxazol-3-yl}-4-methylbenzene-1-sulfonamide]	2760 nM	162 nM	213 nM	0.6 nM	76.1 nM	243 nM
